Article PMC9229919, “4-Aminoquinoline-Based Adamantanes as Potential Anticholinesterase Agents in Symptomatic Treatment of Alzheimer’s Disease” (Pharmaceutics, 2022)
Where two headings read alike, the source gives them in different places.

Experiments:
purified human BChE = target: T1, purified human BChE (Homo sapiens, UniProt P06276); assay: biochemical; type: biochemical
T1 construct: possibly also a gift of Dr Florian Nachon (the sentence is ambiguous)
Description: (§1) Acetylthiocholine (ATCh) and 5,5′-dithiobis(2-nitrobenzoic acid) (DTNB) were purchased from Sigma-Aldrich, St. Louis, MO, USA. ATCh was dissolved in water and DTNB in 0.1 M sodium phosphate buffer (pH 7.4). The 4-aminoquinilines were dissolved in DMSO and all further dilutions were made in water.
(§2) The sources of AChE and BChE were purified human BChE and recombinant human AChE that was kindly provided by Dr Florian Nachon (Département de Toxicologie, Armed Forces Biomedical Research Institute, Brétigny-sur-Orge, France). […] The enzymes were diluted in sodium phosphate buffer 0.1 M (pH 7.4) containing 0.1% BSA.
(§3) Enzyme activities were measured spectrophotometrically using a slightly modified Ellman method, as described earlier. […] At least three inhibitor concentrations for each substrate concentration were used in at least three experiments. The apparent inhibition constant (Ki,app) was calculated using the Hunter–Downs Equation and linear regression analysis:(1) Ki,app=vi·i/v0−vi=Ki+Ki/KS·s where the y-intercept determines the enzyme-inhibitor dissociation constant (Ki), while the x-intercept determines the enzyme-substrate dissociation constant, KS.
(§4) The Hunter–Downs Equation was used under the assumption that the substrate, due to relatively low concentrations used in experiments, would bind only to the catalytic site of the enzymes, while the inhibitors would bind to both CAS and/or PAs. This allowed the type of inhibition to be determined from Ki,app vs. substrate concentration ([S]) dependency on Hunter–Downs plot.
(§5) The final content of DMSO in the measurements was up to 0.2%. […] The measurements were performed at 25 °C on a Tecan Infinite M200Pro plate reader (Tecan Austria GmbH, Salzburg, Austria).

recombinant human AChE = target: T2, recombinant human AChE (Homo sapiens, UniProt P22303); assay: biochemical; type: biochemical; details: for IS: IS = Ki(BChE)/Ki(AChE), IS > 1 selective to AChE
T2 construct: gift of Dr Florian Nachon (Armed Forces Biomedical Research Institute, Brétigny-sur-Orge, France)
Description: as §1, §2, §3, §4, §5

[1] = Ferric reducing antioxidant power (FRAP) assay; details: for FRAP: mean ± standard error of three experiments;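 on FRAP: expressed as µM Fe2+ equivalents from an FeSO4·7H2O standard curve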
Description: . All the chemicals were purchased from Sigma-Aldrich (St. Louis, MO, USA), except for tripyridyltriazine (TPTZ) (Fluka, Buchs, Switzerland) and FeCl3 (Kemika, Zagreb, Croatia). The FRAP assay was assessed according to Benzie and Strain [53] with slight procedure adjustments for 96-well microplates. The method is based on the reduction of the ferric-tripyridyltriazine (Fe^3+-TPTZ) complex to ferrous tripyridyltriazine (Fe^2+-TPTZ) by the action of electron-donating compounds at a low pH. Briefly, the FRAP reagent was prepared by mixing acetate buffer (300 mM, pH 3.6), a solution of 10 mM TPTZ in 40 mM HCl, and 20 mM FeCl3 at 10:1:1 (v/v/v). Then, 240 μL of FRAP reagent and 10 μL of sample solution were added to a 96-well plate and incubated at 37 °C for 60 min. The absorbance was measured at 593 nm using a microplate reader (Infinite M200PRO, Tecan Austria GmbH, Salzburg, Austria) against a blank. The reducing capacity was determined for 10 and 100 µM compound concentrations. […]. All measurements were performed in three independent experiments. FRAP values, denominating the reduction of ferric-tripyridyltriazine (Fe^3+-TPTZ) to ferrous tripyridyltriazine (Fe^2+-TPTZ) by 4-aminoquinolines were calculated based on a standard curve obtained using […].

[2] = Reverse-phase thin-layer chromatographic lipophilicity (RF, RM0); type: physicochemical; details: for RM0: intercept of RM = RM0 + bC; for b: slope of RM = RM0 + bC; for RF, Methanol/Water/Hydrochloric acid (conc.), mobile phase I: I = 90%MeOH/5%H2O/5%HCl; for RF, Dioxane/Water/Hydrochloric acid (conc.), mobile phase II: II = 80%Dioxane/15%H2O/5%HCl; for RF, Methanol/Water/Hydrochloric acid (conc.), mobile phase II: II = 85%MeOH/10%H2O/5%HCl; for RF, Acetone/Water/Hydrochloric acid (conc.), mobile phase III: III = 70%AC/25%H2O/5%HCl; for RF, Dioxane/Water/Hydrochloric acid (conc.), mobile phase III: III = 70%Dioxane/25%H2O/5%HCl; for RF, Methanol/Water/Hydrochloric acid (conc.), mobile phase III: III = 80%MeOH/15%H2O/5%HCl; for RF, Dioxane/Water/Hydrochloric acid (conc.), mobile phase IV: IV = 60%Dioxane/35%H2O/5%HCl; for RF, Acetone/Water/Hydrochloric acid (conc.), mobile phase IV: IV = 65%AC/30%H2O/5%HCl; for RF, Methanol/Water/Hydrochloric acid (conc.), mobile phase IV: IV = 75%MeOH/20%H2O/5%HCl; for RF, Acetone/Water/Hydrochloric acid (conc.), mobile phase IX: IX = 40%AC/55%H2O/5%HCl; for RF, Methanol/Water/Hydrochloric acid (conc.), mobile phase IX: IX = 50%MeOH/45%H2O/5%HCl; for RF, Dioxane/Water/Hydrochloric acid (conc.), mobile phase V: V = 50%Dioxane/45%H2O/5%HCl; for RF, Acetone/Water/Hydrochloric acid (conc.), mobile phase V: V = 60%AC/35%H2O/5%HCl; for RF, Methanol/Water/Hydrochloric acid (conc.), mobile phase V: V = 70%MeOH/25%H2O/5%HCl; for RF, Dioxane/Water/Hydrochloric acid (conc.), mobile phase VI: VI = 40%Dioxane/55%H2O/5%HCl; for RF, Acetone/Water/Hydrochloric acid (conc.), mobile phase VI: VI = 55%AC/40%H2O/5%HCl; for RF, Methanol/Water/Hydrochloric acid (conc.), mobile phase VI: VI = 65%MeOH/30%H2O/5%HCl; for RF, Acetone/Water/Hydrochloric acid (conc.), mobile phase VII: VII = 50%AC/45%H2O/5%HCl; for RF, Methanol/Water/Hydrochloric acid (conc.), mobile phase VII: VII = 60%MeOH/35%H2O/5%HCl; for RF, Acetone/Water/Hydrochloric acid (conc.), mobile phase VIII: VIII = 45%AC/50%H2O/5%HCl; for RF, Methanol/Water/Hydrochloric acid (conc.), mobile phase VIII: VIII = 55%MeOH/40%H2O/5%HCl
Description: Chromatographic determination of lipophilicity
Merck, Darmstadt, Germany). The mobile phase contained organic modifier (methanol, acetone or dioxane), water and hydrochloric acid.
Methanol was varied in the range […]
with an increment of 10%. […]
before chromatogram development. The solvent developing distance was 4.5 cm. Detection of […]
All experiments were performed at ambient temperature (22±2 °C). Retention parameters were calculated as previously described. […]

[3] = ± standard error, 25 °C, ATCh substrate, read-out: Ki BChE
[4] = ± standard error, 25 °C, ATCh substrate, read-out: Ki AChE
[5] = Acetone/Water/Hydrochloric acid (conc.)
[6] = Dioxane/Water/Hydrochloric acid (conc.)
[7] = Methanol/Water/Hydrochloric acid (conc.)

T1 sequence (P06276 29-602): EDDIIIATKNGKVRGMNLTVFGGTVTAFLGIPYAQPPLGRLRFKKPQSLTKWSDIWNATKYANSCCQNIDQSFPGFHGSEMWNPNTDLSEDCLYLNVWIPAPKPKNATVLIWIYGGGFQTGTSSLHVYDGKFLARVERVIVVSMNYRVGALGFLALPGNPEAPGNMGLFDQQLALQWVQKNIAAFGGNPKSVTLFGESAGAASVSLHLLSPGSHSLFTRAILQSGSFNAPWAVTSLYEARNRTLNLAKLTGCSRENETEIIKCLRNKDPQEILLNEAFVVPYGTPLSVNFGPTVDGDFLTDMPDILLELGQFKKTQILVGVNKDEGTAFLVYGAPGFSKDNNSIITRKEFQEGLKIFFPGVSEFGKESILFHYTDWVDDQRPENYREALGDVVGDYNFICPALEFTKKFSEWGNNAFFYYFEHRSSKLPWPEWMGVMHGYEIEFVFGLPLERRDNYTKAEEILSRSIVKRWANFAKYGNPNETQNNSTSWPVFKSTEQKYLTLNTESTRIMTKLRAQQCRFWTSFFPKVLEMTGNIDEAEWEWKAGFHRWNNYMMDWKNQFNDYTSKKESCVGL
T2 sequence (P22303 32-614): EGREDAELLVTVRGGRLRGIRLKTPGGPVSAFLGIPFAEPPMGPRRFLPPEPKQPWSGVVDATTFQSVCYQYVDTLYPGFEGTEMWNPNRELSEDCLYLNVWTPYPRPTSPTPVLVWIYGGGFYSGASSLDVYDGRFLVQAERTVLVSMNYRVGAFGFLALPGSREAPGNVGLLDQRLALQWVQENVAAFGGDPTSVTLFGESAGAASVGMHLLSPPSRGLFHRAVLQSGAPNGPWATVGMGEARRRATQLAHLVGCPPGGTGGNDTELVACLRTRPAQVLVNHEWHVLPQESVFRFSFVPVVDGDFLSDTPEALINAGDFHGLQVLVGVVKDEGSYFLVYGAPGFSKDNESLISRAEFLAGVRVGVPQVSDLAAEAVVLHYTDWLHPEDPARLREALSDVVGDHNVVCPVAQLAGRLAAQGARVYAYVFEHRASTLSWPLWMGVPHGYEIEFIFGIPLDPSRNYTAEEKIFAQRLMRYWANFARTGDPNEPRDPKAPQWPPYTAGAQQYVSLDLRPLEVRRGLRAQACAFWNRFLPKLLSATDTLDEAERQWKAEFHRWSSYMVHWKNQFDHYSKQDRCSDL

SMILES | Ki (purified human BChE; [3]) | IS (recombinant human AChE) | Ki (recombinant human AChE; [4]) | FRAP ([1]; 10 µM compound) | FRAP ([1]; 100 µM compound) | RM0 [2, 5] | b [2, 5] | RM0 [2, 6] | b [2, 6] | RM0 [2, 7] | b [2, 7] | RF, Methanol/Water/Hydrochloric acid (conc.), mobile phase I ([2]; RP-18 silica) | RF, Dioxane/Water/Hydrochloric acid (conc.), mobile phase II ([2]; RP-18 silica) | RF, Methanol/Water/Hydrochloric acid (conc.), mobile phase II ([2]; RP-18 silica) | RF, Acetone/Water/Hydrochloric acid (conc.), mobile phase III ([2]; RP-18 silica) | RF, Dioxane/Water/Hydrochloric acid (conc.), mobile phase III ([2]; RP-18 silica) | RF, Methanol/Water/Hydrochloric acid (conc.), mobile phase III ([2]; RP-18 silica) | RF, Dioxane/Water/Hydrochloric acid (conc.), mobile phase IV ([2]; RP-18 silica) | RF, Acetone/Water/Hydrochloric acid (conc.), mobile phase IV ([2]; RP-18 silica) | RF, Methanol/Water/Hydrochloric acid (conc.), mobile phase IV ([2]; RP-18 silica) | other results
CC(CCNCC12CC3CC(CC(C3)C1)C2)Nc1ccnc2ccccc12 (centres unmarked) [Compound 15] | 0.65 ± 0.04 µM | 0.9 | 0.74 ± 0.03 µM | 9.3 ± 2.2 µM | 224 ± 21 µM | 1.742 | 2.801 | 0.8903 | 1.797 | 2.31 | 3.062 | 0.71 | 0.74 | 0.67 | 0.6 | 0.7 | 0.54 | 0.7 | 0.55 | 0.51 | RF, Acetone/Water/Hydrochloric acid (conc.), mobile phase IX ([2]; RP-18 silica): 0.15; RF, Methanol/Water/Hydrochloric acid (conc.), mobile phase IX ([2]; RP-18 silica): 0.11; RF, Dioxane/Water/Hydrochloric acid (conc.), mobile phase V ([2]; RP-18 silica): 0.51; RF, Acetone/Water/Hydrochloric acid (conc.), mobile phase V ([2]; RP-18 silica): 0.45; RF, Methanol/Water/Hydrochloric acid (conc.), mobile phase V ([2]; RP-18 silica): 0.45; RF, Dioxane/Water/Hydrochloric acid (conc.), mobile phase VI ([2]; RP-18 silica): 0.35; RF, Acetone/Water/Hydrochloric acid (conc.), mobile phase VI ([2]; RP-18 silica): 0.4; RF, Methanol/Water/Hydrochloric acid (conc.), mobile phase VI ([2]; RP-18 silica): 0.36; RF, Acetone/Water/Hydrochloric acid (conc.), mobile phase VII ([2]; RP-18 silica): 0.35; RF, Methanol/Water/Hydrochloric acid (conc.), mobile phase VII ([2]; RP-18 silica): 0.27; RF, Acetone/Water/Hydrochloric acid (conc.), mobile phase VIII ([2]; RP-18 silica): 0.29; RF, Methanol/Water/Hydrochloric acid (conc.), mobile phase VIII ([2]; RP-18 silica): 0.2
Clc1ccc2c(NCCCCCN(CCC34CC5CC(CC(C5)C3)C4)CCC34CC5CC(CC(C5)C3)C4)ccnc2c1 [Compound 11] | 0.82 ± 0.04 µM | 2.5 | 0.33 ± 0.01 µM | 5.3 ± 1.4 µM | 23 ± 4 µM | 3.759 | 4.955 | 2.01 | 2.862 | 5.504 | 5.94 | 0.43 | 0.64 | 0.31 | 0.32 | 0.58 | 0.09 | 0.47 | 0.27 | 0.09 | RF, Acetone/Water/Hydrochloric acid (conc.), mobile phase I ([2]; RP-18 silica, I = 80%AC/15%H2O/5%HCl): 0.58; RF, Dioxane/Water/Hydrochloric acid (conc.), mobile phase I ([2]; RP-18 silica, I = 90%Dioxane/5%H2O/5%HCl): 0.74; RF, Acetone/Water/Hydrochloric acid (conc.), mobile phase II ([2]; RP-18 silica, II = 75%AC/20%H2O/5%HCl): 0.52; RF, Acetone/Water/Hydrochloric acid (conc.), mobile phase IX ([2]; RP-18 silica): 0; RF, Methanol/Water/Hydrochloric acid (conc.), mobile phase IX ([2]; RP-18 silica): 0; RF, Dioxane/Water/Hydrochloric acid (conc.), mobile phase V ([2]; RP-18 silica): 0.13; RF, Acetone/Water/Hydrochloric acid (conc.), mobile phase V ([2]; RP-18 silica): 0.12; RF, Methanol/Water/Hydrochloric acid (conc.), mobile phase V ([2]; RP-18 silica): 0.05; RF, Dioxane/Water/Hydrochloric acid (conc.), mobile phase VI ([2]; RP-18 silica): 0; RF, Acetone/Water/Hydrochloric acid (conc.), mobile phase VI ([2]; RP-18 silica): 0.08; RF, Methanol/Water/Hydrochloric acid (conc.), mobile phase VI ([2]; RP-18 silica): 0.01; RF, Acetone/Water/Hydrochloric acid (conc.), mobile phase VII ([2]; RP-18 silica): 0; RF, Methanol/Water/Hydrochloric acid (conc.), mobile phase VII ([2]; RP-18 silica): 0; RF, Acetone/Water/Hydrochloric acid (conc.), mobile phase VIII ([2]; RP-18 silica): 0; RF, Methanol/Water/Hydrochloric acid (conc.), mobile phase VIII ([2]; RP-18 silica): 0
Clc1ccc2c(NCCNCCC34CC5CC(CC(C5)C3)C4)ccnc2c1 [Compound 8] | 0.92 ± 0.07 µM | 0.6 | 1.6 ± 0.1 µM | 33 ± 12 µM | 62 ± 7 µM | 2.227 | 3.421 | 1.144 | 2.1084 | 2.713 | 3.446 | 0.69 | 0.74 | 0.63 | 0.55 | 0.68 | 0.45 | 0.66 | 0.5 | 0.47 | Ki (purified human BChE; logarithm of Ki in µM, BChE, dependent variable of the QSAR model, read-out: Y Measured 2 log(ki)Bche, log (Ki/µM BChE) (converted)): 0.92 µM; Ki (recombinant human AChE; log (Ki/µM AChE), read-out: Y Measured 1 log(ki)Ache (converted)): 1.6 µM; RF, Acetone/Water/Hydrochloric acid (conc.), mobile phase IX ([2]; RP-18 silica): 0.08; RF, Methanol/Water/Hydrochloric acid (conc.), mobile phase IX ([2]; RP-18 silica): 0.08; RF, Dioxane/Water/Hydrochloric acid (conc.), mobile phase V ([2]; RP-18 silica): 0.47; RF, Acetone/Water/Hydrochloric acid (conc.), mobile phase V ([2]; RP-18 silica): 0.39; RF, Methanol/Water/Hydrochloric acid (conc.), mobile phase V ([2]; RP-18 silica): 0.39; RF, Dioxane/Water/Hydrochloric acid (conc.), mobile phase VI ([2]; RP-18 silica): 0.28; RF, Acetone/Water/Hydrochloric acid (conc.), mobile phase VI ([2]; RP-18 silica): 0.34; RF, Methanol/Water/Hydrochloric acid (conc.), mobile phase VI ([2]; RP-18 silica): 0.28; RF, Acetone/Water/Hydrochloric acid (conc.), mobile phase VII ([2]; RP-18 silica): 0.29; RF, Methanol/Water/Hydrochloric acid (conc.), mobile phase VII ([2]; RP-18 silica): 0.18; RF, Acetone/Water/Hydrochloric acid (conc.), mobile phase VIII ([2]; RP-18 silica): 0.21; RF, Methanol/Water/Hydrochloric acid (conc.), mobile phase VIII ([2]; RP-18 silica): 0.13
Nc1c2c(nc3ccccc13)CCCC2 [Tacrine, reference compound] | – | – | – | 3.4 ± 0.0 µM | 15 ± 2 µM | – | – | – | – | – | – | – | – | – | – | – | – | – | – | – | reducing power (in words) ([1]; 10 and 100 µM): negligible reducing power
Cc1cc(C(C)(C)C)c(O)c(C(C)(C)C)c1 [BHT, butylated hydroxytoluene, reference compound] | – | – | – | – | 3021 ± 117 µM | – | – | – | – | – | – | – | – | – | – | – | – | – | – | – | –
Cc1c(C)c2c(c(C)c1O)CCC(C)(C(=O)O)O2 (centres unmarked) [Trolox, reference compound] | – | – | – | 523 ± 8 µM | 5812 ± 68 µM | – | – | – | – | – | – | – | – | – | – | – | – | – | – | – | –
